Results reported in patent publication US9309196B2, “Indole derivatives and process for their preparation” (Ramot at Tel-Aviv University Ltd., priority 2010, dated 2016).

Target: T1, monomeric Aβ1-42 (Homo sapiens, UniProt P05067)
T1 construct: Aβ1-42 (#60-0-80, American Peptide, Sunnyvale, Calif. USA); purchased American Peptide, Sunnyvale, Calif; USA #60-0-80
Assay: Surface plasmon resonance (SPR) binding of compounds to immobilized Aβ1-42 monomers (Biacore X100)
Settings: compounds 0.1 nM to 300 nM, 25° C., steady-state analysis, repeated tests
Procedure: Aβ monomers were covalently coupled to one flow cell of CM7 sensor chips (GE Lifesciences, Uppsala, Sweden) via primary amines using the Amine Coupling Kit (GE Lifesciences, Uppsala, Sweden). As a control, ethanolamine was immobilized on the reference channel. […] One RU represents about 1 pg/mm^2 of the analytes on the surface matrix of the sensor chip.
Concentrations were tested in duplicate.
The RUs elicited by the compound injected into the ethanolamine control flow cell was set as reference response and subtracted from the RUs elicited by the same compound injected to the Aβ saturated flow cell. The relationships between each RU obtained at the steady state of binding (plateau of the binding curve) and each concentration of the compound were plotted.
After the analyte injection was stopped, HBS-EP buffer was flowed over the chip for 180 s to allow the bound analyte to dissociate from the immobilized Aβ and the dissociation curves were obtained.
The dissociation equilibrium constant KD of the analyte to the immobilized Aβ was determined from the steady-state levels estimating the maximum RU Rmax and calculating the KD as the concentration of the compound that elicited one-half of the Rmax.

T1 sequence (P05067 672-713 limits assumed): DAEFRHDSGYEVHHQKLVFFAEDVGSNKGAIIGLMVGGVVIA

Row | IC50 | SMILES
1 | 6.8 nM | CNC(=O)C(C)(C)/C=C/[C@H](N)Cc1c[nH]c2ccccc12 [Example 4, (E)-(R)-5-Amino-6-(1H-indol-3-yl)-2,2-dimethyl-hex-3-enoic-acid-methylamide]
2 | 0.5 nM | CC(C)(/C=C/[C@H](N)Cc1c[nH]c2ccccc12)C(N)=O [Example 3, (E)-(R)-5-Amino-6-(1H-indol-3-yl)-2,2-dimethyl-hex-3-enoic acid amide]
3 | 42.1 nM | CC(=O)N[C@@H](/C=C/C(C)(C)C(=O)O)Cc1c[nH]c2ccccc12 [Example 5, (E)-(R)-5-Acetylamino-6-(1H-indol-3-yl)-2,2-dimethyl-hex-3-enoic-acid]
